In ChEMBL document CHEMBL1136051, “Synthesis and antiproliferative activity of a new compound containing an alpha-methylene-gamma-lactone group” (J Med Chem, 2002):

Columns and labels:
HL-60 [1] = experiment: In vitro antiproliferative activity against HL-60 myeloid leukemia HL-60 cells in culture; assay type: functional, cell-based; conditions: Homo sapiens
HL-60 [2] = experiment: Concentration required for endonucleolytic DNA cleavage in HL-60 cells; assay type: functional, cell-based; conditions: Homo sapiens

C=C1C(=O)O[C@H](CCc2ccc(OC)cc2)[C@H]1C gave an IC50 (HL-60 [1]) of 4 µM and a Concentration (HL-60 [2]) of 5 µM.
